Structures are written as SMILES.

These results are taken from BindingDB's records for doi:10.1016/j.bmcl.2010.08.118 (Roche Palo Alto, 2010).

The nature of this assay: Inhibition of CCR5 by cell-cell fusion inhibition assay.

With `Cc1ncnc(C)c1C(=O)N1C[C@H]2CN(CCC(c3ccccc3)C3CN(C(=O)CC(C)C)C3)C[C@H]2C1` (stereo partly drawn) [1-(3-(3-((3aR,6aS)-5-(4,6-dimethylpyrimidine-5-carbonyl)hexahydropyrrolo[3,4-c]pyrrol-2(1H)-yl)-1-phenylpropyl)azetidin-1-yl)-3-methylbutan-1-one], the IC50 (usually the concentration at which inhibition is half-maximal) was over 5000 nM. Molecule `Cc1ncnc(C)c1C(=O)N1C[C@H]2CN(CCC(c3ccccc3)C3CCN(C(=O)C(C)C)CC3)C[C@H]2C1` (stereo partly drawn) [1-(4-(3-((3aR,6aS)-5-(4,6-dimethylpyrimidine-5-carbonyl)hexahydropyrrolo[3,4-c]pyrrol-2(1H)-yl)-1-phenylpropyl)piperidin-1-yl)-2-methylpropan-1-one] returned an IC50 of over 5000 nM. With `Cc1ncnc(C)c1C(=O)N1C[C@H]2CN(CCC(c3ccccc3)C3CCN(C(=O)CC(C)C)CC3)C[C@H]2C1` (stereo partly drawn) [1-(4-(3-((3aR,6aS)-5-(4,6-dimethylpyrimidine-5-carbonyl)hexahydropyrrolo[3,4-c]pyrrol-2(1H)-yl)-1-phenylpropyl)piperidin-1-yl)-3-methylbutan-1-one], half-maximal inhibition (IC50) was put at 2820 nM. For `CCC(=O)N1CCC(C(CCN2C[C@@H]3CN(C(=O)c4c(C)ncnc4C)C[C@@H]3C2)c2ccccc2)CC1` (stereo partly drawn) [1-(4-(3-((3aR,6aS)-5-(4,6-dimethylpyrimidine-5-carbonyl)hexahydropyrrolo[3,4-c]pyrrol-2(1H)-yl)-1-phenylpropyl)piperidin-1-yl)propan-1-one], the IC50 is over 5000 nM. In turn, `Cc1cc(=O)oc(C)c1C(=O)N1C[C@H]2CN(CCC(c3ccccc3)C3CCN(S(C)(=O)=O)CC3)C[C@H]2C1` (stereo partly drawn) [4,6-dimethyl-5-((3aR,6aS)-5-(3-(1-(methylsulfonyl)piperidin-4-yl)-3-phenylpropyl)octahydropyrrolo[3,4-c]pyrrole-2-carbonyl)-2H-pyran-2-one] displayed an IC50 of 8 nM. To `Cc1ncnc(C)c1C(=O)N1C[C@H]2CN(CCC(c3ccccc3)C3CCN(C(=O)NC(C)C)CC3)C[C@H]2C1` (stereo partly drawn) [4-(3-((3aR,6aS)-5-(4,6-dimethylpyrimidine-5-carbonyl)hexahydropyrrolo[3,4-c]pyrrol-2(1H)-yl)-1-phenylpropyl)-N-isopropylpiperidine-1-carboxamide] belongs over 5000 nM.

Take `Cc1ncnc(C)c1C(=O)N1C[C@H]2CN(CCC(c3ccccc3)C3CN(S(=O)(=O)C(C)C)C3)C[C@H]2C1` (stereo partly drawn) [(4,6-dimethylpyrimidin-5-yl)((3aR,6aS)-5-(3-(1-(isopropylsulfonyl)azetidin-3-yl)-3-phenylpropyl)hexahydropyrrolo[3,4-c]pyrrol-2(1H)-yl)methanone]: the IC50 is 93 nM.

The molecule `Cc1ncnc(C)c1C(=O)N1C[C@H]2CN(CCC(c3ccccc3)C3CCN(S(=O)(=O)C(C)C)CC3)C[C@H]2C1` (stereo partly drawn) [(4,6-dimethylpyrimidin-5-yl)((3aR,6aS)-5-(3-(1-(isopropylsulfonyl)piperidin-4-yl)-3-phenylpropyl)hexahydropyrrolo[3,4-c]pyrrol-2(1H)-yl)methanone] gave an IC50 of 99 nM. In turn, `Cc1ncnc(C)c1C(=O)N1C[C@H]2CN(CCC(c3ccccc3)C3CN(CC(F)(F)F)C3)C[C@H]2C1` (stereo partly drawn) [(4,6-dimethylpyrimidin-5-yl)((3aR,6aS)-5-(3-phenyl-3-(1-(2,2,2-trifluoroethyl)azetidin-3-yl)propyl)hexahydropyrrolo[3,4-c]pyrrol-2(1H)-yl)methanone] displayed an IC50 of over 5000 nM.

With `Cc1ncnc(C)c1C(=O)N1C[C@H]2CN(CCC(c3ccccc3)C3CCN(CC(F)(F)F)CC3)C[C@H]2C1` (stereo partly drawn) [(4,6-dimethylpyrimidin-5-yl)((3aR,6aS)-5-(3-phenyl-3-(1-(2,2,2-trifluoroethyl)piperidin-4-yl)propyl)hexahydropyrrolo[3,4-c]pyrrol-2(1H)-yl)methanone], the IC50 amounted to 34 nM. Turning to `Cc1ncnc(C)c1C(=O)N1C[C@H]2CN(CCC(c3cccc(F)c3)C3CCN(CC(F)F)CC3)C[C@H]2C1` (stereo partly drawn) [((3aR,6aS)-5-(3-(1-(2,2-difluoroethyl)piperidin-4-yl)-3-(3-fluorophenyl)propyl)hexahydropyrrolo[3,4-c]pyrrol-2(1H)-yl)(4,6-dimethylpyrimidin-5-yl)methanone], inhibition was half-maximal at 11 nM (IC50). To `Cc1ncnc(C)c1C(=O)N1C[C@H]2CN(CCC(c3ccccc3)C3CCN(CC(F)F)CC3)C[C@H]2C1` (stereo partly drawn) [((3aR,6aS)-5-(3-(1-(2,2-difluoroethyl)piperidin-4-yl)-3-phenylpropyl)hexahydropyrrolo[3,4-c]pyrrol-2(1H)-yl)(4,6-dimethylpyrimidin-5-yl)methanone] belongs 137 nM. In the case of `Cc1ncnc(C)c1C(=O)N1C[C@H]2CN(CCC(c3ccccc3)C3CN(C(=O)C4CCCC4)C3)C[C@H]2C1` (stereo partly drawn) [((3aR,6aS)-5-(3-(1-(cyclopentanecarbonyl)azetidin-3-yl)-3-phenylpropyl)hexahydropyrrolo[3,4-c]pyrrol-2(1H)-yl)(4,6-dimethylpyrimidin-5-yl)methanone] it was 2830 nM; in that of `Cc1ncnc(C)c1C(=O)N1C[C@H]2CN(CCC(c3cc(F)cc(F)c3)C3CN(S(=O)(=O)C4CC4)C3)C[C@H]2C1` (stereo partly drawn) [((3aR,6aS)-5-(3-(1-(cyclopropylsulfonyl)azetidin-3-yl)-3-(3,5-difluorophenyl)propyl)hexahydropyrrolo[3,4-c]pyrrol-2(1H)-yl)(4,6-dimethylpyrimidin-5-yl)methanone], 63 nM; in that of `Cc1ncnc(C)c1C(=O)N1C[C@H]2CN(CCC(c3cccc(F)c3)C3CN(S(=O)(=O)C4CC4)C3)C[C@H]2C1` (stereo partly drawn) [((3aR,6aS)-5-(3-(1-(cyclopropylsulfonyl)azetidin-3-yl)-3-(3-fluorophenyl)propyl)hexahydropyrrolo[3,4-c]pyrrol-2(1H)-yl)(4,6-dimethylpyrimidin-5-yl)methanone], 30 nM. In the case of `Cc1ncnc(C)c1C(=O)N1C[C@H]2CN(CCC(c3ccccc3)C3CN(S(=O)(=O)C4CC4)C3)C[C@H]2C1` (stereo partly drawn) [((3aR,6aS)-5-(3-(1-(cyclopropylsulfonyl)azetidin-3-yl)-3-phenylpropyl)hexahydropyrrolo[3,4-c]pyrrol-2(1H)-yl)(4,6-dimethylpyrimidin-5-yl)methanone] it was 313 nM.

Molecule `COC(=O)N1CCC(C(CCN2C[C@@H]3CN(C(=O)c4c(C)ncnc4C)C[C@@H]3C2)c2ccccc2)CC1` (stereo partly drawn) [methyl 4-(3-((3aR,6aS)-5-(4,6-dimethylpyrimidine-5-carbonyl)hexahydropyrrolo[3,4-c]pyrrol-2(1H)-yl)-1-phenylpropyl)piperidine-1-carboxylate] gave a concentration for half-maximal inhibition (IC50) of 744 nM.
